Where a name gives a salt, the structure may show the parent alone.
Key:
[1] = target: Bile salt export pump (Homo sapiens, UniProt O95342); assay: Inhibition of human BSEP overexpressed in Sf9 cell membrane vesicles assessed as uptake of [3H]-taurocholate in presence of ATP measured after 15 to 20 mins by membrane vesicle transport assay; type: ADME, cell-based
[2] = target: ATP-binding cassette sub-family C member 2 (Homo sapiens, UniProt Q92887); assay: Inhibition of human MRP2 overexpressed in Sf9 cell membrane vesicles assessed as uptake of [3H]-estradiol-17beta-D-glucuronide in presence of ATP and GSH measured after 20 mins by membrane vesicle transport assay
Chain of ATP-binding cassette sub-family C member 2 (Q92887 whole entry): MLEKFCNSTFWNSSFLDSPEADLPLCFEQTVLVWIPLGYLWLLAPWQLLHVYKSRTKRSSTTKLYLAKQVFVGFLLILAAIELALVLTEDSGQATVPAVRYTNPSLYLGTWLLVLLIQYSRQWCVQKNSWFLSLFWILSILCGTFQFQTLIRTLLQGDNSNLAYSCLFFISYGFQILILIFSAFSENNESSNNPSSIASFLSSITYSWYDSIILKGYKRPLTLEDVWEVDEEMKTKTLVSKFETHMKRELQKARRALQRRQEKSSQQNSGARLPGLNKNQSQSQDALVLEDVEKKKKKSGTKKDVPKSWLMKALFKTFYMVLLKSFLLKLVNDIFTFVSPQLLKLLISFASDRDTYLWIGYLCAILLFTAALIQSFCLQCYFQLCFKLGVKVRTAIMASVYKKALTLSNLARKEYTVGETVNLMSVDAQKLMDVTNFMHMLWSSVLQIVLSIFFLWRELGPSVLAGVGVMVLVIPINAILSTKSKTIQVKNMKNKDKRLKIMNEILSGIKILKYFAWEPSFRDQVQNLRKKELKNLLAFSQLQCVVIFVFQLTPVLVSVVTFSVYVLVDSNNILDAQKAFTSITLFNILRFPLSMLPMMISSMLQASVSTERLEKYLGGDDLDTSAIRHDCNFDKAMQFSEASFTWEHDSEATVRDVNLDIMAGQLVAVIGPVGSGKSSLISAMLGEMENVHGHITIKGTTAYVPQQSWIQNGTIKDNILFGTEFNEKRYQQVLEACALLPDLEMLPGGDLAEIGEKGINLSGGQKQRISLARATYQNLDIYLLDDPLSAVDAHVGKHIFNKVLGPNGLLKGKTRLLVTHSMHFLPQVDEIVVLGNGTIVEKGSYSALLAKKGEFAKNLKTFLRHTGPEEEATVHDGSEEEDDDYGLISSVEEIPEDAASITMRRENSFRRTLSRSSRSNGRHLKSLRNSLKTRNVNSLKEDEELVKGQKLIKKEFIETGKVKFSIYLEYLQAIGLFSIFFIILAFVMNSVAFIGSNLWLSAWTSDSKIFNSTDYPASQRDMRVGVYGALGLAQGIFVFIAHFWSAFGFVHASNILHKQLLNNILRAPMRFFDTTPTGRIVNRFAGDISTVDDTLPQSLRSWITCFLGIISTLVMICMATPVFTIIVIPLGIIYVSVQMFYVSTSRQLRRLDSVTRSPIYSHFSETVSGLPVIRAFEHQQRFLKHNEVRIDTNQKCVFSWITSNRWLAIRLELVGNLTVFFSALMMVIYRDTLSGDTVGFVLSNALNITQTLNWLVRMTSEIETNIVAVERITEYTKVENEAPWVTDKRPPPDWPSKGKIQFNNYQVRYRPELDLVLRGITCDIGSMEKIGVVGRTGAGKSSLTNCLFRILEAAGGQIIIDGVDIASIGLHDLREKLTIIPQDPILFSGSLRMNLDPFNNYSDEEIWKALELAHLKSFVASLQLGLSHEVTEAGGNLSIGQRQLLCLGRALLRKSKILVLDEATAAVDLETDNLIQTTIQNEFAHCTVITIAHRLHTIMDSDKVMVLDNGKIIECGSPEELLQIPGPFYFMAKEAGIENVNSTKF

[3] = target: ATP-binding cassette sub-family C member 3 (Homo sapiens, UniProt O15438); assay: Inhibition of human MRP3 overexpressed in Sf9 insect cell membrane vesicles assessed as uptake of [3H]-estradiol-17beta-D-glucuronide in presence of ATP and GSH measured after 10 mins by membrane vesicle transport assay; type: ADME, cell-based
Chain of ATP-binding cassette sub-family C member 3 (O15438 whole entry): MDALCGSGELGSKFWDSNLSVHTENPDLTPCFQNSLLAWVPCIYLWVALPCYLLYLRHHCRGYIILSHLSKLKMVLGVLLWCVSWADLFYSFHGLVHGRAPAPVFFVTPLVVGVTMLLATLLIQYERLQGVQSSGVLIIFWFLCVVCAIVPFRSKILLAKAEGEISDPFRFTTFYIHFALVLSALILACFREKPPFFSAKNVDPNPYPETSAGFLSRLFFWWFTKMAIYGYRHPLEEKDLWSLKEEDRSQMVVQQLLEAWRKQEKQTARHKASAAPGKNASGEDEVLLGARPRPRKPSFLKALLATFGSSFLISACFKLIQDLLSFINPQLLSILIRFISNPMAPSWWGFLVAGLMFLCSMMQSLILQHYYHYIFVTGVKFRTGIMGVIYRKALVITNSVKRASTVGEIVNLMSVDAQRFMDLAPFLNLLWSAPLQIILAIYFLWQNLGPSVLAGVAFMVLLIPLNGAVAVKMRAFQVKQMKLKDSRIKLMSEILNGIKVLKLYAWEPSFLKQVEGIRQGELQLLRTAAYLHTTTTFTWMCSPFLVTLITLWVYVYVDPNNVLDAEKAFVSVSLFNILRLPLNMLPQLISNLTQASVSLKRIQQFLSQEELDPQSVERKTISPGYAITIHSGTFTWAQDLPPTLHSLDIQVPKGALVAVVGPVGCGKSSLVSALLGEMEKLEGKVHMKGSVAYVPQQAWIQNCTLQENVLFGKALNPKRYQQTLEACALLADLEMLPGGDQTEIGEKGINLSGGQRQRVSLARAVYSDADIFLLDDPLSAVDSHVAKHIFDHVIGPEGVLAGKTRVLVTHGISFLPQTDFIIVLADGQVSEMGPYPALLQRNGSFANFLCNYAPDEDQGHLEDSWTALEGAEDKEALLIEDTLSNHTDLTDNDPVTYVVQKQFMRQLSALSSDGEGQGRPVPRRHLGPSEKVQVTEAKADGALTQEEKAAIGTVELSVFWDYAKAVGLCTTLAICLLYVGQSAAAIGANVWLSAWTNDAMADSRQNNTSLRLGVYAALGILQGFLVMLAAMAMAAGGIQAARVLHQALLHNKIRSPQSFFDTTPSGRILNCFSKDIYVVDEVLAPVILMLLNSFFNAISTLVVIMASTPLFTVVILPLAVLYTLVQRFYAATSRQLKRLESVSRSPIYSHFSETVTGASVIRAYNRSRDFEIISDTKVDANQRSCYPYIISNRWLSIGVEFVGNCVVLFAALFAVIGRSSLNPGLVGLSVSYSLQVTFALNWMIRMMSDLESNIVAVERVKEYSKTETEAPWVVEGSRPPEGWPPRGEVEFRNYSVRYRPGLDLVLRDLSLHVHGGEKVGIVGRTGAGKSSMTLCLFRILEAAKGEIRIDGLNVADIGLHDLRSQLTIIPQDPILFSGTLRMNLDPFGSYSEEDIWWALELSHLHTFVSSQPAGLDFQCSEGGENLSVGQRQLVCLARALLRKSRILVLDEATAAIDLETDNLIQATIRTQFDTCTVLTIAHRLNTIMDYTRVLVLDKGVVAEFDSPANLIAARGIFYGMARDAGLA

[4] = target: T1, ATP-binding cassette sub-family C member 4 (Homo sapiens, UniProt O15439); assay: Inhibition of human MRP4 overexpressed in Sf9 cell membrane vesicles assessed as uptake of [3H]-estradiol-17beta-D-glucuronide in presence of ATP and GSH measured after 20 mins by membrane vesicle transport assay; type: ADME, cell-based
T1 sequence (O15439 whole entry): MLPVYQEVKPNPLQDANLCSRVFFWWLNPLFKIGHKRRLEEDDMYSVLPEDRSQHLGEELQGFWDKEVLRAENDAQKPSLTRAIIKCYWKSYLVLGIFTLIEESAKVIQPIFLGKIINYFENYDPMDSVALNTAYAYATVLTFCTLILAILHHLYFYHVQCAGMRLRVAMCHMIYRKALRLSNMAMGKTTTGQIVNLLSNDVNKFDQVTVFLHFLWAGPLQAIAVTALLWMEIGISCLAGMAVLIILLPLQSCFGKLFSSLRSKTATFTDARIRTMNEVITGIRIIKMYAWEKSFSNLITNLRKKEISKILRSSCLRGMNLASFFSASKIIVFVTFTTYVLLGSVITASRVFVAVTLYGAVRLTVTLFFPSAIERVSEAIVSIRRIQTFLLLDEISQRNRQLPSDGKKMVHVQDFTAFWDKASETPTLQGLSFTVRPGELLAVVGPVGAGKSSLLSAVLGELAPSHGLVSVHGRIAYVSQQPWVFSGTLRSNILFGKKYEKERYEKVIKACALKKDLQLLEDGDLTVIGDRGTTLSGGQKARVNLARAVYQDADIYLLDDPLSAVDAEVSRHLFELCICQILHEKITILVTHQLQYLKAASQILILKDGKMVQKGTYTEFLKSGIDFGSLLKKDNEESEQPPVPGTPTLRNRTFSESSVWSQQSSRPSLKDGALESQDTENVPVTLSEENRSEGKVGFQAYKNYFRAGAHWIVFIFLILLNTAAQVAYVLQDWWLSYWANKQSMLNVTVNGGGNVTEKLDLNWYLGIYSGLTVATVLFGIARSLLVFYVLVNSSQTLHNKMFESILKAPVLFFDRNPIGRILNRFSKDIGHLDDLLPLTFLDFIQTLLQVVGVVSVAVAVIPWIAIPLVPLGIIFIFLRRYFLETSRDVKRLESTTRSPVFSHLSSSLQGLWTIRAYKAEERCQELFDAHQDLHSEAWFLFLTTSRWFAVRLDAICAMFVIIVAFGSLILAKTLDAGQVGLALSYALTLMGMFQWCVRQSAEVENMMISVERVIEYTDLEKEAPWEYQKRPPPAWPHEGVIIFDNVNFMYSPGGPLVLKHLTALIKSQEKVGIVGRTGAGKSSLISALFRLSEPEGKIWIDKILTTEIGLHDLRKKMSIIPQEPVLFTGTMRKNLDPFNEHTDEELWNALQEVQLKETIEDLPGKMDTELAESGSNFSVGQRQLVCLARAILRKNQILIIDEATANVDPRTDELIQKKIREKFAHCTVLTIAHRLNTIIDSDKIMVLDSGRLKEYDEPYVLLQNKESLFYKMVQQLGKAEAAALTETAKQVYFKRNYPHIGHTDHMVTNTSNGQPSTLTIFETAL

[5] = AUC in human at 0.2 mg, po QID after 6 hrs; type: ADME, organism-based; design: time < 6 hr, dose 0.2 mg, route oral; conditions: in vivo
[6] = Ratio of drug concentration at steady state in human at 0.2 mg, po QID after 6 hrs to IC50 for human BSEP overexpressed in Sf9 insect cells; type: ADME, organism-based; conditions: in vivo
[7] = Ratio of drug concentration at steady state in human at 0.2 mg, po QID after 6 hrs to IC50 for human MRP4 overexpressed in Sf9 insect cells; type: ADME, organism-based; conditions: in vivo
[8] = AUC in human at 5 to 10 mg, po QD after 24 hrs; type: ADME, organism-based; conditions: in vivo
[9] = Drug concentration at steady state in human at 5 to 10 mg, po QD after 24 hrs; type: ADME, organism-based; conditions: in vivo, read-out: Css
[10] = Ratio of drug concentration at steady state in human at 5 to 10 mg, po QD after 24 hrs to IC50 for human BSEP overexpressed in Sf9 insect cells; type: ADME, organism-based; conditions: in vivo
[11] = system: Homo sapiens; assay: Cardiotoxicity in human at 20 to 30 mg/day, po; type: toxicity
[12] = AUC in human at 10 mg, po after 24 hrs; type: ADME, organism-based; design: time < 24 hr, dose 10 mg, route oral; conditions: in vivo
[13] = AUC in human at 50 mg, po QD after 24 hrs; type: ADME, organism-based; design: dose 50 mg, time < 24 hr, route oral; conditions: in vivo
[14] = Drug concentration at steady state in human at 50 mg, po QD after 24 hrs; type: ADME, organism-based; conditions: in vivo, read-out: Css
[15] = Ratio of drug concentration at steady state in human at 50 mg, po QD after 24 hrs to IC50 for human BSEP overexpressed in Sf9 insect cells; type: ADME, organism-based; conditions: in vivo
[16] = Ratio of drug concentration at steady state in human administered intraocularly as 1 drop QD of 0.03% solution after 24 hrs to IC50 for human BSEP overexpressed in Sf9 insect cells; type: ADME; conditions: topical_or_ocular
[17] = AUC in human at 1 ug/ml, po QD after 24 hrs; type: ADME, organism-based; design: dose 1 ug/ml, time < 24 hr, route oral; conditions: in vivo
[18] = system: Homo sapiens; assay: Drug concentration at steady state in human at 1 ug/ml, po QD after 24 hrs; type: ADME, organism-based; conditions: in vivo
[19] = Ratio of drug concentration at steady state in human at 1 ug/ml, po QD after 24 hrs to IC50 for human BSEP overexpressed in Sf9 insect cells; type: ADME, organism-based
[20] = AUC in human at 20 to 80 mg, po QD after 24 hrs; type: ADME, organism-based; conditions: in vivo
[21] = Drug concentration at steady state in human at 20 to 80 mg, po QD after 24 hrs; type: ADME, organism-based; conditions: in vivo, read-out: Css
[22] = Ratio of drug concentration at steady state in human at 20 to 80 mg, po QD after 24 hrs to IC50 for human BSEP overexpressed in Sf9 insect cells; type: ADME, organism-based; conditions: in vivo
[23] = Ratio of drug concentration at steady state in human at 20 to 80 mg, po QD after 24 hrs to IC50 for human MRP3 overexpressed in Sf9 insect cells; type: ADME, organism-based; conditions: in vivo
[24] = AUC in human at 15 to 60 mg, po QD after 24 hrs; type: ADME, organism-based; conditions: in vivo
[25] = Drug concentration at steady state in human at 15 to 60 mg, po QD after 24 hrs; type: ADME, organism-based; conditions: in vivo, read-out: Css
[26] = Ratio of drug concentration at steady state in human at 15 to 60 mg, po QD after 24 hrs to IC50 for human BSEP overexpressed in Sf9 insect cells; type: ADME, organism-based; conditions: in vivo

Chain of Bile salt export pump (O95342 whole entry): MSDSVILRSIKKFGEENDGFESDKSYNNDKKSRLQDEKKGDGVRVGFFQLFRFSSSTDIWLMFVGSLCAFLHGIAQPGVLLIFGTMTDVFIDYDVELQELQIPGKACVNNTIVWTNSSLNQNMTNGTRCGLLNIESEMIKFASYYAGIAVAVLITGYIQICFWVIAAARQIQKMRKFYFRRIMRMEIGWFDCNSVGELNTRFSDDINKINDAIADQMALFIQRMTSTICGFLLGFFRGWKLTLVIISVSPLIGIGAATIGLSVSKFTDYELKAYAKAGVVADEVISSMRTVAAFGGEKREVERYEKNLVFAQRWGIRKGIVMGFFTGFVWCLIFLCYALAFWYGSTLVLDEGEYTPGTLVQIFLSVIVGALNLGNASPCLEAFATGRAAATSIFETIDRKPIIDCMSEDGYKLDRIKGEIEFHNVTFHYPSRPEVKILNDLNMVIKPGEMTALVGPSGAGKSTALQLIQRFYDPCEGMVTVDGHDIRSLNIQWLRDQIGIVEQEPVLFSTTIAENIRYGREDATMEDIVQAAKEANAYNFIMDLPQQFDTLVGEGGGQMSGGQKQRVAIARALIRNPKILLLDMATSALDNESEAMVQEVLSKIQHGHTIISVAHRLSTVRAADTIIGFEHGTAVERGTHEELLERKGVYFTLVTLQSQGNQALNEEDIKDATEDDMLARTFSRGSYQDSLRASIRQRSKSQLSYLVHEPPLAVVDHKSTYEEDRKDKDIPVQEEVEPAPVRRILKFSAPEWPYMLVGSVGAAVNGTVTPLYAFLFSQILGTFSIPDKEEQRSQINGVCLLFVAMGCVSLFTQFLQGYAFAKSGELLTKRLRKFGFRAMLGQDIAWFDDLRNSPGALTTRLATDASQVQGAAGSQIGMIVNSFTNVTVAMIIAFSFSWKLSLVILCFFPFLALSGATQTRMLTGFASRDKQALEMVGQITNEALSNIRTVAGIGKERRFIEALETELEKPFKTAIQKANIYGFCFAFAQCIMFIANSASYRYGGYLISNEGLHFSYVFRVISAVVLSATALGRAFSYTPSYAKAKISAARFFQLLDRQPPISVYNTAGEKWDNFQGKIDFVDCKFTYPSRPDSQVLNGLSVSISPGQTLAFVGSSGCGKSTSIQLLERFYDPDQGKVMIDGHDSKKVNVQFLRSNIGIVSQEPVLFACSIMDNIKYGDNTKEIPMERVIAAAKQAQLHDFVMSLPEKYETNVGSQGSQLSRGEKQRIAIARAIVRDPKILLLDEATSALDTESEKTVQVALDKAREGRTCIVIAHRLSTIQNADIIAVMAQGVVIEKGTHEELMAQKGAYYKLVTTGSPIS

| Compound | IC50 [1] [µM] | IC50 [2] [µM] | IC50 [3] [µM] | IC50 [4] [µM] | also measured |
| --- | --- | --- | --- | --- | --- |
| CCCC[C@](C)(O)C/C=C/[C@H]1[C@H](O)CC(=O)[C@@H]1CCCCCCC(=O)OC | 27.7 | > 133 | > 133 | 46 | AUC at 6 h [5]: 0.001 µM·h; Ratio [6]: 0.00001; Ratio [7]: 0 |
| CC(C)(C)C(=O)OCOP(=O)(COCCn1cnc2c(N)ncnc21)OCOC(=O)C(C)(C)C [ADEFOVIR DIPIVOXIL] | 46 | > 133 | > 133 | > 133 | AUC at 24 h [8]: 0.765 µM·h; concentration at 24 h [9]: 32 nM; Ratio [10]: 0.00069 |
| COc1ccc(CCN2CCC(Nc3nc4ccccc4n3Cc3ccc(F)cc3)CC2)cc1 [ASTEMIZOLE] | – | > 133 | > 133 | > 133 | Activity [11]: Toxic; AUC at 24 h [12]: 0.024 µM·h |
| CC(O)(CS(=O)(=O)c1ccc(F)cc1)C(=O)Nc1ccc(C#N)c(C(F)(F)F)c1 (stereo not given) [BICALUTAMIDE] | 79.6 | > 133 | > 133 | > 133 | AUC at 24 h [13]: 502 µM·h; concentration at 24 h [14]: 20900 nM; Ratio [15]: 0.263 |
| CCNC(=O)CCC/C=C\C[C@@H]1[C@@H](/C=C/[C@@H](O)CCc2ccccc2)[C@H](O)C[C@@H]1O [BIMATOPROST] | 40.4 | > 133 | > 133 | > 133 | Ratio [16]: 2e-7 |
| C=C1/C(=C\C=C2/CCC[C@]3(C)[C@@H]([C@H](C)CCCC(C)(C)O)CC[C@@H]23)C[C@@H](O)C[C@@H]1O [CALCITRIOL] | 39.7 | > 133 | > 133 | > 133 | AUC at 24 h [17]: 0.002 µM·h; Css [18]: 0 nM; Ratio [19]: 1.6e-6 |
| CC(C)n1c(/C=C/C(O)CC(O)CC(=O)O)c(-c2ccc(F)cc2)c2ccccc21 (stereo not given) [FLUVASTATIN] | – | – | 57 | > 133 | AUC at 24 h [20]: 1.49 µM·h; concentration at 24 h [21]: 62 nM; Ratio [22]: 0.002; Ratio [23]: 0.001 |
| Cc1ccccc1C(=O)Nc1ccc(C(=O)N2CCCC(O)c3cc(Cl)ccc32)c(C)c1 (stereo not given) [TOLVAPTAN] | 9.99 | > 133 | > 133 | > 133 | AUC at 24 h [24]: 9.49 µM·h; concentration at 24 h [25]: 396 nM; Ratio [26]: 0.04 |
| CC[C@]1(O)C[C@H]2CN(CCc3c([nH]c4ccccc34)[C@@](C(=O)OC)(c3cc4c(cc3OC)N(C=O)[C@H]3[C@@](O)(C(=O)OC)[C@H](OC(C)=O)[C@]5(CC)C=CCN6CC[C@]43[C@@H]65)C2)C1 [VINCRISTINE SULFATE] | > 133 | > 133 | > 133 | > 133 | – |
| OCC(CO)N[C@H]1C[C@](O)(CO)[C@@H](O)[C@H](O)[C@H]1O [VOGLIBOSE] | > 133 | > 133 | > 133 | > 133 | – |
| O=C(CCCCCCC(=O)Nc1ccccc1)NO [VORINOSTAT] | > 133 | > 133 | > 133 | > 133 | – |
| CC(=O)CC(c1ccccc1)c1c(O)c2ccccc2oc1=O (stereo not given) [WARFARIN SODIUM] | > 133 | > 133 | > 133 | > 133 | – |
| O=C(NCCNCC(O)COc1ccc(O)cc1)N1CCOCC1 (stereo not given) [XAMOTEROL] | > 133 | > 133 | > 133 | > 133 | – |
| Nc1ccn([C@H]2CC[C@@H](CO)O2)c(=O)n1 [ZALCITABINE] | > 133 | > 133 | > 133 | > 133 | – |
| CCN(C(C)=O)c1cccc(-c2ccnc3c(C#N)cnn23)c1 [ZALEPLON] | > 133 | > 133 | > 133 | > 133 | – |
| Cc1cn([C@H]2C[C@H](N=[N+]=[N-])[C@@H](CO)O2)c(=O)[nH]c1=O [ZIDOVUDINE] | > 133 | > 133 | > 133 | > 133 | – |
| CC(c1cc2ccccc2s1)N(O)C(N)=O (stereo not given) [ZILEUTON] | > 133 | > 133 | > 133 | > 133 | – |
| O=C1Cc2cc(CCN3CCN(c4nsc5ccccc45)CC3)c(Cl)cc2N1 [ZIPRASIDONE MESYLATE] | > 133 | > 133 | > 133 | > 133 | – |
| O=P(O)(O)C(O)(Cn1ccnc1)P(=O)(O)O [ZOLEDRONIC ACID] | > 133 | > 133 | > 133 | > 133 | – |
| CN(C)CCc1c[nH]c2ccc(C[C@H]3COC(=O)N3)cc12 [ZOLMITRIPTAN] | > 133 | > 133 | > 133 | > 133 | – |
| NS(=O)(=O)Cc1noc2ccccc12 [ZONISAMIDE] | > 133 | > 133 | > 133 | > 133 | – |
| CN1CCN(C(=O)OC2c3nccnc3C(=O)N2c2ccc(Cl)cn2)CC1 (stereo not given) [ZOPICLONE] | > 133 | > 133 | > 133 | > 133 | – |
| SPIRAMYCIN | > 133 | > 133 | > 133 | > 133 | – |
| enfuvirtide | > 133 | > 133 | > 133 | 7.5 | – |
